{"source": "paper PMC9785606", "about": "“Design and Synthesis of Novel Phenylahistin Derivatives Based on Co-Crystal Structures as Potent Microtubule Inhibitors for Anti-Cancer Therapy” (Marine Drugs, 2022)", "type_in_all_cases": "cell-based", "key": {"caspase-3": {"tested_on": "caspase-3", "experiment": "Western blotting of caspase-3 expression", "procedure": "Western blot was performed as previously described with antibody caspase-3 (1:1000) (WB0177/WB0176) or GAPDH (1:3000) (WB0197/WB0196, Shanghai Wei-Ao Biotechnology Co., Shanghai, China). Densities of the Western blotting bands were quantified using ImageJ 19.0. (NIH, Bethesda, MD, USA)."}, "[1]": {"tested_on": "pancreatic cancer BxPC-3 cell line", "experiment": "MTT cytotoxicity assay, pancreatic cancer BxPC-3 cell line", "conditions": "Homo sapiens, 72 h, mean ± SD", "procedure": "(§1) Human cancer cell lines (lung cancer NCI-H460 cell line, pancreatic cancer BxPC-3 cell line, colon cancer HT-29 cell line) were purchased from American Type Cell Culture Collection (ATCC, Manassas, VA, USA). Cells were maintained in RPMI-1640 medium supplemented with 10% (v/v) heat-inactivated fetal bovine serum, penicillin-streptomycin (100 U/mL-100 […]) at 37 °C in a humidified atmosphere (5% CO2–95% air). All tested derivatives were dissolved in 100% cell culture grade DMSO. Cells (3 × 10^3 per well) were seeded in 96-well plates for 24 h. Then, cells were treated with the tested compounds in six concentrations for 72 h. Cell viability was assessed by MTT assay. The absorbance at 490 nm was measured with a Microplate Reader (Molecular Devices, Silicon Valley, CA, USA). The data were analyzed by Origin 8.5 (OriginLab, Northampton, MA, USA)."}, "[2]": {"tested_on": "colon cancer HT-29 cell line", "experiment": "MTT cytotoxicity assay, colon cancer HT-29 cell line", "conditions": "Homo sapiens, 72 h, mean ± SD", "procedure": "as §1"}, "[3]": {"tested_on": "human lung cancer NCI-H460 cell line", "experiment": "MTT cytotoxicity assay, lung cancer NCI-H460 cell line", "conditions": "Homo sapiens, NCI-H460, 72 h, mean ± SD", "procedure": "as §1"}}, "data": [{"smiles": "C=CCn1cnc(/C=c2\\[nH]c(=O)/c(=C/c3cccc(C(=O)c4ccc(F)cc4)c3)[nH]c2=O)c1C(C)C", "note": "[15p]", "values": [{"measurement": "Expression of caspase-3 vs control group and plinabulin group", "setting": "caspase-3", "result": "significantly higher"}, {"measurement": "Upregulation of caspase-3", "setting": "caspase-3; 10 nM", "result": "strongest upregulation of caspase-3"}, {"measurement": "IC50", "setting": "[1]", "result": "0.81 ± 0.02", "unit": "nM"}, {"measurement": "IC50", "setting": "[2]", "result": "0.67 ± 0.064", "unit": "nM"}, {"measurement": "IC50", "setting": "[3]", "result": "1.03 ± 0.18", "unit": "nM"}]}]}
